Measurements taken from US12358902B2, “5-(2,5-bis(4-chloro-2-isopropylphenyl)thiophen-3-yl)-1H-tetrazole for the topical treatment of bacterial infections” (DENOVAMED INC., priority 2017, dated 2025).
In brackets after ≈: the same amount, converted by molar mass.

Tests used:
Type in all cases: cell-based
[1] = system: E. faecalis ATCC51599 vancomycin resistant; experiment: broth microdilution MIC (CLSI); conditions: Enterococcus faecalis, read-out: Antibacterial activity (MIC)
Experimental: (§1) Using a broth microdilution assay according to Clinical Laboratory Standards Institute (CSLI) guidelines, we tested 5-(2,5-bis(4-chloro-2-isopropylphenyl)thiophen-3-yl)-1H-tetrazole (“Test Article” in below table) to establish MICs against a broad range of MDR bacteria and noted substantive activity versus methicillin-resistant Staphylococcus aureus (MRSA), vancomycin-resistant Enterococcus (VRE) and Streptococcus spp. Antimicrobial susceptibility testing was performed by a microdilution broth assay according to CLSI guidelines. The inoculum was prepared from stationary-phase cultures diluted in water. Microtiter plate wells received aliquots of 100 μL of the compound diluted in Mueller-Hinton II cation adjusted media. The final concentration of compound typically ranged from 250 to 0.125 μg/ml in serial two-fold dilutions. In addition to the test compound, growth and sterility controls were included, along with DMSO vehicle control rows. The microtiter plates were inoculated with 5×10^5 bacteria and incubated overnight at 35° C. in a humidified atmosphere.

[2] = system: E. faecium ATCC51299 vancomycin resistant; experiment: broth microdilution MIC (CLSI); conditions: Enterococcus faecium, read-out: Antibacterial activity (MIC)
Experimental: as §1

S. aureus MRSA ATCC43300 = experiment: broth microdilution MIC (CLSI); conditions: Staphylococcus aureus; S. aureus MRSA ATCC43300; read-out: Antibacterial activity (MIC)
Experimental: as §1

[3] = system: S. aureus MRSA MISA MU3 NRS2; experiment: broth microdilution MIC (CLSI); conditions: Staphylococcus aureus; S. aureus MRSA MISA MU3 NRS2; read-out: Antibacterial activity (MIC)
Experimental: as §1

[4] = system: S. aureus MRSA MISA MU50 NRS1; experiment: broth microdilution MIC (CLSI); conditions: Staphylococcus aureus; S. aureus MRSA MISA MU50 NRS1; read-out: Antibacterial activity (MIC)
Experimental: as §1

[5] = system: S. aureus MRSA USA100 epidemic strain; experiment: broth microdilution MIC (CLSI); conditions: Staphylococcus aureus; S. aureus MRSA USA100 epidemic strain; read-out: Antibacterial activity (MIC)
Experimental: as §1

[6] = system: S. aureus MRSA USA200 epidemic strain; experiment: broth microdilution MIC (CLSI); conditions: Staphylococcus aureus; S. aureus MRSA USA200 epidemic strain; read-out: Antibacterial activity (MIC)
Experimental: as §1

[7] = system: S. aureus MRSA USA300 epidemic strain; experiment: broth microdilution MIC (CLSI); conditions: Staphylococcus aureus; S. aureus MRSA USA300 epidemic strain; read-out: Antibacterial activity (MIC)
Experimental: as §1

[8] = system: S. aureus MRSA clinical isolate ciprofloxacin resistant; experiment: broth microdilution MIC (CLSI); conditions: Staphylococcus aureus; S. aureus MRSA clinical isolate ciprofloxacin resistant; read-out: Antibacterial activity (MIC)
Experimental: as §1

[9] = system: S. aureus MRSA clinical isolate from Manchester; experiment: broth microdilution MIC (CLSI); conditions: Staphylococcus aureus; S. aureus MRSA clinical isolate from Manchester; read-out: Antibacterial activity (MIC)
Experimental: as §1

[10] = system: S. aureus MRSA clinical isolate multi resistant; experiment: broth microdilution MIC (CLSI); conditions: Staphylococcus aureus; S. aureus MRSA clinical isolate multi resistant; read-out: Antibacterial activity (MIC)
Experimental: as §1

[11] = system: S. aureus MRSA clinical isolate penicillin and erythromycin resistant; experiment: broth microdilution MIC (CLSI); conditions: Staphylococcus aureus; S. aureus MRSA clinical isolate penicillin and erythromycin resistant; read-out: Antibacterial activity (MIC)
Experimental: as §1

[12] = system: S. epidermidis NRS7 vancomycin intermediate; experiment: broth microdilution MIC (CLSI); conditions: Staphylococcus epidermidis, read-out: Antibacterial activity (MIC)
Experimental: as §1

[13] = system: mupirocin resistant strains of E. faecalis VRE; experiment: activity against mupirocin resistant strains
E. coli AcpS = target: T1, E. coli AcpS (Escherichia coli, UniProt P24224); experiment: MIC shift upon AcpS over-expression in E. coli strain D22; conditions: E. coli D22 over-expressing E. coli AcpS, IPTG inducible
T1 construct: expressed in transfected cells; host or cells: E. coli strain D22 (porous outer membrane)
Source text: (§2) To determine if AcpS inhibition is the main in vivo target that results in bacterial killing by 5-(2,5-bis(4-chloro-2-isopropylphenyl)thiophen-3-yl)-1H-tetrazole, we over-expressed AcpS in bacteria. An E. coli strain genetically engineered to have a porous outer membrane (strain D22) was transformed with a plasmid expressing either E. coli or S. aureus AcpS under control of an IPTG inducible promoter.

S. aureus AcpS = experiment: as above; conditions: E. coli D22 over-expressing S. aureus AcpS, IPTG inducible
Source text: as §2

T1 sequence (P24224 whole entry): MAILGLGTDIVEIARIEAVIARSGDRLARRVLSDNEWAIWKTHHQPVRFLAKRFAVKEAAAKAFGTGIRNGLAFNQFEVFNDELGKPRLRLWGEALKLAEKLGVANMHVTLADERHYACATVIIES

CC(C)c1cc(Cl)ccc1-c1cc(-c2nnn[nH]2)c(-c2ccc(Cl)cc2C(C)C)s1 [Test Article, 5-(2,5-bis(4-chloro-2-isopropylphenyl)thiophen-3-yl)-1H-tetrazole]
MIC [1]: 0.5 µg/mL (≈ 1.09 µM) | MIC [2]: 1 µg/mL (≈ 2.19 µM) | MIC (S. aureus MRSA ATCC43300): 0.5 µg/mL (≈ 1.09 µM) | MIC [3]: 1 µg/mL (≈ 2.19 µM) | MIC [4]: 0.5 µg/mL (≈ 1.09 µM) | MIC [5]: 1 µg/mL (≈ 2.19 µM) | MIC [6]: 0.5 µg/mL (≈ 1.09 µM) | MIC [7]: 0.5 µg/mL (≈ 1.09 µM) | MIC [8]: 1 µg/mL (≈ 2.19 µM) | MIC [9]: 0.5 µg/mL (≈ 1.09 µM) | MIC [10]: 0.5 µg/mL (≈ 1.09 µM) | MIC [11]: 0.5 µg/mL (≈ 1.09 µM) | MIC [12]: 1 µg/mL (≈ 2.19 µM) | activity [13]: retained activity | shift of MIC to higher concentration upon increased AcpS expression (E. coli AcpS): 32 fold | shift of MIC to higher concentration upon increased AcpS expression (S. aureus AcpS): 16 fold
